Assay [1] relates to Anticarsia gemmatalis. The experiment in a line: Another test on a non-GM soybean variety (feeding damage). In kind it is in vivo. Particulars: 12.5 g a.i./ha.
Assay [2] deals with Anticarsia gemmatalis. Particulars: 12.5 g a.i./ha; 5 days after application; GMO soybean BMX Potencia RR.
Assay [3] has as its system Anticarsia gemmatalis. The experiment in a line: whole plant or invertebrate. As to conditions: in Glycine max, 48 h, read-out: mortality 2 DAA.

Here are results for 1 compound from patent US20150250174A1, “USE OF N-THIO-ANTHRANILAMIDE COMPOUNDS ON CULTIVATED PLANTS” (BASF SE, priority 2012, published 2015).

The term mortality denotes the percentage killed.

Regarding `CCS(CC)=NC(=O)c1cc(Cl)cc(C)c1NC(=O)c1cc(C(F)(F)F)nn1-c1ncccc1Cl` [compound I-11, 2-(3-chloro-2-pyridyl)-N-[2-methyl-4-chloro-6-[(diethyl-λ^4-sulfanylidene)carbamoyl]phenyl]-5-(trifluoromethyl)pyrazole-3-carboxamide], the “reduction in feeding damage compared to the untreated controls” value in the assay on Anticarsia gemmatalis [1] stood at 97%. The “reduction of feeding damage compared to the untreated controls” value in the assay with Anticarsia gemmatalis [2] stood at 100%. Further, in the assay with Anticarsia gemmatalis [3], the mortality at 6.25 g/ha worked out at 83% and the mortality at 50 g/ha amounted to 87%.
